{"source": "patent US20130252988A1", "about": "“COMPOSITIONS AND METHODS FOR TREATING MYELOFIBROSIS” (TARGEGEN, INC., priority 2010, published 2013)", "origin": "cited, not measured here", "conditions": "Kantarjian H M et al., Blood 110:3540-3546, 2007; cited from earlier work", "data": [{"smiles": "Cc1cn(-c2cc(NC(=O)c3ccc(C)c(Nc4nccc(-c5cccnc5)n4)c3)cc(C(F)(F)F)c2)cn1", "note": "[nilotinib]", "values": [{"measurement": "Asymptomatic hyperamylasemia, sometimes with hyperlipasemia, as toxicity", "value": "observed"}]}]}
